What was measured:
[1] = system: freshly collected P. falciparum patient isolates; test: ex-vivo Piperaquine Survival Assay (PSA) on fresh isolates; type: cell-based, Plasmodium falciparum
Procedure: Blood samples were collected into acid-citrate-dextrose tubes (Becton-Dickinson, USA) before treatment and sent to Institut Pasteur in Cambodia within 24 hours. A sub-set of freshly collected samples was used to perform the ex-vivo PSA.^7 All samples were cryopreserved in glycerolyte. Red cell pellets were stored at −20° C. for molecular studies. Blood spots were prepared on day 0 and when applicable on the day of recrudescence.
Cryopreserved parasites were culture-adapted as described.^12 Susceptibility to PPQ was investigated using in-vitro PSA for culture-adapted parasites and ex-vivo PSA for fresh isolates. Survival rates were assessed microscopically and parasites with a survival rate ≥10% were considered PPQ-resistant.^7 msp1, msp2 and glurp polymorphisms were determined to distinguish recrudescent from new infections.^13 Sequencing of the K13-propeller domain was used to screen for ART-resistance.^1 Whole-genome sequencing was performed using Illumina paired-reads sequencing.^1 Data were integrated into the Whole-genome Data Manager (WDM) database^14 and exomes of PPQ-resistant and -sensitive lines were compared after excluding low-coverage positions (i.e., lower than 25% of the genome-wide mean coverage). […] 1+PfPM2 and Pfmdr1 copy number was determined by qPCR (see below). […]

[2] = system: culture-adapted P. falciparum parasite lines; test: in-vitro Piperaquine Survival Assay (PSA) on culture-adapted parasites; type: cell-based, Plasmodium falciparum; details: for in-vitro PSA survival rate (%): 200 nM PPQ for 48 hours
Procedure: Cryopreserved parasites were culture-adapted as described.^12 Susceptibility to PPQ was investigated using in-vitro PSA for culture-adapted parasites and ex-vivo PSA for fresh isolates. Survival rates were assessed microscopically and parasites with a survival rate ≥10% were considered PPQ-resistant.^7 msp1, msp2 and glurp polymorphisms were determined to distinguish recrudescent from new infections.^13 Sequencing of the K13-propeller domain was used to screen for ART-resistance.^1 Whole-genome sequencing was performed using Illumina paired-reads sequencing.^1 Data were integrated into the Whole-genome Data Manager (WDM) database^14 and exomes of PPQ-resistant and -sensitive lines were compared after excluding low-coverage positions (i.e., lower than 25% of the genome-wide mean coverage). Genes from highly variable multigene families (var, rifin, phist and stevor) were excluded.^1 CNVs and SNPs were investigated using PlasmoCNVScan and Phen2gen software (see below). 1+PfPM2 and Pfmdr1 copy number was determined by qPCR (see below). Steady-state PfPM2 mRNA levels were measured by RT-qPCR (see below) and PfPM2 protein expression by immunoblotting (see below).
In-vitro susceptibility to PPQ was investigated using the in-vitro or the ex-vivo PSA, which is based on exposing very early ring-stage parasites to 200 nM PPQ for 48 hours, washing away the drug, and assessing parasite growth after a further 24 hours of culture. Survival rates at the 72 hour time point were assessed microscopically by counting the proportion of viable parasites in exposed and non-exposed cultures that developed into second-generation rings or trophozoites with normal morphology. Parasites with a survival rate ≥10% were considered PPQ-resistant.^5

For Clc1ccc2c(N3CCN(CCCN4CCN(c5ccnc6cc(Cl)ccc56)CC4)CC3)ccnc2c1 [PPQ, piperaquine], the “median ex-vivo PSA survival rate” value ([1]; isolates with unamplified (single copy) PfPM2) was 0.004%, the “median ex-vivo PSA survival rate” value ([1]; isolates with ≥2 PfPM2 copies) was 51.7% and the “in-vitro susceptibility to PPQ” value ([2]; 3D7 reference line) was “Sensitive (sensitive if survival rates were <10%)”. For the same compound, the “in-vitro PSA survival rate (%)” value ([2]; 3D7 reference line, survival at 72 hour) was 0.1%, the “In-vitro PSA survival rate, PSA mean value” ([2]; one sequence with DNA expansion type 3) was 39.3% and the “in-vitro susceptibility to PPQ” value ([2]; parasite line 6218) was “Resistant (resistant if survival rates were ≥10%)”. The “in-vitro PSA survival rate (%)” value ([2]; parasite line 6218 (2012, Battambang)) was 40.8%, the “in-vitro susceptibility to PPQ” value ([2]; parasite line 6219) was “Resistant (resistant if survival rates were ≥10%)” and the “in-vitro PSA survival rate (%)” value ([2]; parasite line 6219 (2012, Battambang)) was 58.6%. For the same compound, the “in-vitro susceptibility to PPQ” value ([2]; parasite line 6224) was “Resistant (resistant if survival rates were ≥10%)”, the “in-vitro PSA survival rate (%)” value ([2]; parasite line 6224 (2012, Pursat)) was 61.4% and the “in-vitro susceptibility to PPQ” value ([2]; parasite line 6229) was “Resistant (resistant if survival rates were ≥10%)”. The “in-vitro PSA survival rate (%)” value ([2]; parasite line 6229 (2012, Battambang)) was 46.6%, the “in-vitro susceptibility to PPQ” value ([2]; parasite line 6237) was “Sensitive (sensitive if survival rates were <10%)” and the “in-vitro PSA survival rate (%)” value ([2]; parasite line 6237 (2012, Kampong Thom)) was 0.8%. For the same compound, the “in-vitro susceptibility to PPQ” value ([2]; parasite line 6246) was “Resistant (resistant if survival rates were ≥10%)”, the “in-vitro PSA survival rate (%)” value ([2]; parasite line 6246 (2012, Kampong Speu)) was 36.9% and the “in-vitro susceptibility to PPQ” value ([2]; parasite line 6261) was “Resistant (resistant if survival rates were ≥10%)”. For the same compound, the “in-vitro PSA survival rate (%)” value ([2]; parasite line 6261 (2012, Pursat)) was 70.5%, the “in-vitro susceptibility to PPQ” value ([2]; parasite line 6267) was “Sensitive (sensitive if survival rates were <10%)” and the “in-vitro PSA survival rate (%)” value ([2]; parasite line 6267 (2012, Kampong Speu)) was 0.5%. For the same compound, the “in-vitro susceptibility to PPQ” value ([2]; parasite line 6272) was “Resistant (resistant if survival rates were ≥10%)”, the “in-vitro PSA survival rate (%)” value ([2]; parasite line 6272 (2012, Battambang)) was 40.0% and the “in-vitro susceptibility to PPQ” value ([2]; parasite line 6273) was “Sensitive (sensitive if survival rates were <10%)”. For the same compound, the “in-vitro PSA survival rate (%)” value ([2]; parasite line 6273 (2012, Kampong Speu)) was 0.2%, the “in-vitro susceptibility to PPQ” value ([2]; parasite line 6280) was “Resistant (resistant if survival rates were ≥10%)” and the “in-vitro PSA survival rate (%)” value ([2]; parasite line 6280 (2012, Battambang)) was 28.9%. For the same compound, the “in-vitro susceptibility to PPQ” value ([2]; parasite line 6293) was “Resistant (resistant if survival rates were ≥10%)”, the “in-vitro PSA survival rate (%)” value ([2]; parasite line 6293 (2012, Battambang)) was 39.3% and the “in-vitro susceptibility to PPQ” value ([2]; parasite line 6302) was “Resistant (resistant if survival rates were ≥10%)”. The “in-vitro PSA survival rate (%)” value ([2]; parasite line 6302 (2012, Battambang)) was 42.5%, the “in-vitro susceptibility to PPQ” value ([2]; parasite line 6320) was “Resistant (resistant if survival rates were ≥10%)” and the “in-vitro PSA survival rate (%)” value ([2]; parasite line 6320 (2012, Battambang)) was 62.1%. For the same compound, the “in-vitro susceptibility to PPQ” value ([2]; parasite line 6337) was “Sensitive (sensitive if survival rates were <10%)”, the “in-vitro PSA survival rate (%)” value ([2]; parasite line 6337 (2012, Kampong Speu)) was 0.4% and the “in-vitro susceptibility to PPQ” value ([2]; parasite line 6341) was “Resistant (resistant if survival rates were ≥10%)”. The “in-vitro PSA survival rate (%)” value ([2]; parasite line 6341 (2012, Pursat)) was 25.8%, the “in-vitro susceptibility to PPQ” value ([2]; parasite line 6349) was “Sensitive (sensitive if survival rates were <10%)” and the “in-vitro PSA survival rate (%)” value ([2]; parasite line 6349 (2012, Kampong Thom)) was 0.6%. The “in-vitro susceptibility to PPQ” value ([2]; parasite line 6365) was “Resistant (resistant if survival rates were ≥10%)”, the “in-vitro PSA survival rate (%)” value ([2]; parasite line 6365 (2012, Battambang)) was 51.8% and the “in-vitro susceptibility to PPQ” value ([2]; parasite line 6369) was “Sensitive (sensitive if survival rates were <10%)”. The “in-vitro PSA survival rate (%)” value ([2]; parasite line 6369 (2012, Pursat)) was 6.4%, the “in-vitro susceptibility to PPQ” value ([2]; parasite line 6391) was “Resistant (resistant if survival rates were ≥10%)” and the “in-vitro PSA survival rate (%)” value ([2]; parasite line 6391 (2012, Battambang)) was 39.4%. For the same compound, the “in-vitro susceptibility to PPQ” value ([2]; parasite line 6394) was “Resistant (resistant if survival rates were ≥10%)”, the “in-vitro PSA survival rate (%)” value ([2]; parasite line 6394 (2012, Battambang)) was 56.7% and the “in-vitro susceptibility to PPQ” value ([2]; parasite line 6395) was “Resistant (resistant if survival rates were ≥10%)”. The “in-vitro PSA survival rate (%)” value ([2]; parasite line 6395 (2012, Battambang)) was 19.2%, the “in-vitro susceptibility to PPQ” value ([2]; parasite line 6403) was “Sensitive (sensitive if survival rates were <10%)” and the “in-vitro PSA survival rate (%)” value ([2]; parasite line 6403 (2012, Pursat)) was 0.5%. The “in-vitro susceptibility to PPQ” value ([2]; parasite line 6408) was “Resistant (resistant if survival rates were ≥10%)”, the “in-vitro PSA survival rate (%)” value ([2]; parasite line 6408 (2012, Battambang)) was 58.7% and the “in-vitro susceptibility to PPQ” value ([2]; parasite line 6410) was “Sensitive (sensitive if survival rates were <10%)”. The “in-vitro PSA survival rate (%)” value ([2]; parasite line 6410 (2012, Battambang)) was 6.0%, the “in-vitro susceptibility to PPQ” value ([2]; parasite line 6411) was “Resistant (resistant if survival rates were ≥10%)” and the “in-vitro PSA survival rate (%)” value ([2]; parasite line 6411 (2012, Battambang)) was 71.6%. The “in-vitro susceptibility to PPQ” value ([2]; parasite line 6427) was “Resistant (resistant if survival rates were ≥10%)”, the “in-vitro PSA survival rate (%)” value ([2]; parasite line 6427 (2012, Battambang)) was 77.4% and the “in-vitro susceptibility to PPQ” value ([2]; parasite line 6429) was “Resistant (resistant if survival rates were ≥10%)”. For the same compound, the “in-vitro PSA survival rate (%)” value ([2]; parasite line 6429 (2012, Pursat)) was 51.8%, the “in-vitro susceptibility to PPQ” value ([2]; parasite line 6430) was “Resistant (resistant if survival rates were ≥10%)” and the “in-vitro PSA survival rate (%)” value ([2]; parasite line 6430 (2012, Battambang)) was 51.3%. The “in-vitro susceptibility to PPQ” value ([2]; parasite line 6431) was “Resistant (resistant if survival rates were ≥10%)”, the “in-vitro PSA survival rate (%)” value ([2]; parasite line 6431 (2012, Battambang)) was 61.5% and the “in-vitro susceptibility to PPQ” value ([2]; parasite line 6443) was “Resistant (resistant if survival rates were ≥10%)”. The “in-vitro PSA survival rate (%)” value ([2]; parasite line 6443 (2012, Battambang)) was 49.6%, the “In-vitro PSA survival rate, PSA mean value” ([2]; parasites harboring DNA expansion type 1 (N=13)) was 44.8% and the “In-vitro PSA survival rate, PSA mean value” ([2]; parasites harboring DNA expansion type 2 (N=6)) was 64.9%. The “In-vitro PSA survival rate, PSA mean value” ([2]; parasites harboring DNA expansion type 4 (N=2)) was 16.2%.

From patent publication US12168805B2, “Methods and reagents for detecting piperaquine-resistant plasmodium falciparum malaria” (priority 2016, dated 2024)
